# Patent US20200369626A1 (Washington University, priority 2019, published 2020)
# Read-outs that look alike come from different tables or passages of the source.
# Target: T1, S1PR2 (Homo sapiens, UniProt O95136)
# T1 construct: purchased
# Test: competitive [^32P]S1P binding assay on cell membranes, S1PR2
# [1] = [^32P]S1P competition, IC50 ± SD, Table 1 (2a-l, 4a-h), read-out: IC50 (binding potency toward S1PR2)
# [2] = [^32P]S1P competition, read-out: IC50 value, S1PR2 binding
# [3] = [^32P]S1P competition, IC50 ± SD, second Table 1, read-out: S2PR2 IC50
# T1 sequence (O95136 whole entry): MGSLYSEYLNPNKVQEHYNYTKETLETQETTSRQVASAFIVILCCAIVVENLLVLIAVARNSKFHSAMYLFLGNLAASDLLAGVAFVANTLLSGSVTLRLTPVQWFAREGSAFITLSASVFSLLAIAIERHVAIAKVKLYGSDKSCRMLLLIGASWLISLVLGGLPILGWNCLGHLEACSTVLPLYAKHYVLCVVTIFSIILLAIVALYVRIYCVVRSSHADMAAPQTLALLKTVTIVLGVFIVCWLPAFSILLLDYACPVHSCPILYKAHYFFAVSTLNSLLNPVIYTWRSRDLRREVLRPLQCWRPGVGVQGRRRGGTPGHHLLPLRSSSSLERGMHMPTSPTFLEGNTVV
smiles,measurement,setting,value
COc1cccc(NC(=O)Cn2c(=O)c3ccccc3n(CC(=O)Nc3cc(Cl)c(OC)cc3OC)c2=O)c1 [Compound 2b],IC50,[1],39.1 ± 7 nM
COc1cc(OC)c(NC(=O)Cn2c(=O)n(CC(=O)Nc3ccc(O)cc3)c(=O)c3ccccc32)cc1Cl [Compound 2e],IC50,[2],2.6 ± 0.3 nM
COc1cc(OC)c(NC(=O)Cn2c(=O)n(CC(=O)NCCc3cccnc3)c(=O)c3ccccc32)cc1Cl [Compound 2f],IC50,[1],58.7 ± 9 nM
COc1cc(OC)c(NC(=O)Cn2c(=O)n(CC(=O)Nc3cc(Cl)nc(Cl)c3)c(=O)c3ccccc32)cc1Cl [Compound 2g],IC50,[1],> 1000 nM
COc1cc(OC)c(NC(=O)Cn2c(=O)n(CC(=O)NCCOCCO)c(=O)c3ccccc32)cc1Cl [Compound 2i],IC50,[1],91.4 ± 17.6 nM
CNC(=O)Cn1c(=O)c2ccccc2n(CC(=O)Nc2cc(Cl)c(OC)cc2OC)c1=O [Compound 2k],IC50,[1],376 ± 91 nM
COc1cc(OC)c(NC(=O)Cn2c(=O)n(CC(=O)N(C)C)c(=O)c3ccccc32)cc1Cl [Compound 2l],IC50,[1],175 ± 13 nM
"CCC(CC)CC1(O)CCN(C(=O)Nc2cc(OCCF)cc(Oc3ccc(F)cc3)c2)CC1 [Compound 11a, 4-(2-Ethylbutyl)-N-(3-(2-fluoroethoxy)-5-(4-fluorophenoxy)phenyl)-4-hydroxypiperidine-1-carboxamide]",IC50,[3],> 1000 nM
same,IC50,[2],> 1000 nM
"CCC(CC)CC1(O)CCN(C(=O)Nc2cc(OCCCF)cc(Oc3ccc(F)cc3)c2)CC1 [Compound 11b, 4-(2-Ethylbutyl)-N-(3-(4-fluorophenoxy)-5-(3-fluoropropoxy)phenyl)-4-hydroxypiperidine-1-carboxamide]",IC50,[3],> 1000 nM
same,IC50,[2],> 1000 nM
"CN1CCN(c2cc(Oc3ccc(F)cc3)cc([N+](=O)[O-])c2)CC1 [Compound 15a, 1-(3-(4-Fluorophenoxy)-5-nitrophenyl)-4-methylpiperazine]",IC50,[2],> 1000 nM
"O=[N+]([O-])c1cc(Oc2ccc(F)cc2)cc(-n2cccn2)c1 [Compound 15b, 1-(3-(4-Fluorophenoxy)-5-nitrophenyl)-1H-pyrazole]",IC50,[2],> 1000 nM
"CCC(CC)CC1(O)CCN(C(=O)Nc2cc(Oc3ccc(F)cc3)cc(N3CCN(C)CC3)c2)CC1 [Compound 17a, 4-(2-Ethylbutyl)-N-(3-(4-fluorophenoxy)-5-(4-methylpiperazin-1-yl)phenyl)-4-hydroxypiperidine-1-carboxamide]",IC50,[3],> 1000 nM
"CCC(CC)CC1(O)CCN(C(=O)Nc2cc(Oc3ccc(F)cc3)cc(-n3cccn3)c2)CC1 [Compound 17b, 4-(2-Ethylbutyl)-N-(3-(4-fluorophenoxy)-5-(1H-pyrazol-1-yl)phenyl)-4-hydroxypiperidine-1-carboxamide]",IC50,[3],> 1000 nM
"CCC(CC)CC1(O)CCN(C(=O)Nc2cc(Oc3ccc(C(=O)NC)cc3)cc(C(F)(F)F)c2)CC1 [Compound 21c, 4-(2-Ethylbutyl)-4-hydroxy-N-(3-(4-(methylcarbamoyl)-phenoxy)-5 (trifluoromethyl)phenyl)piperidine-1-carboxamide]",IC50,[3],278 nM
"CCC(CC)CC1(O)CCN(C(=O)Nc2cc(Oc3ccc(S(C)(=O)=O)cc3)cc(C(F)(F)F)c2)CC1 [Compound 21f, 4-(2-Ethylbutyl)-4-hydroxy-N-(3-(4-(methylsulfonyl)phenoxy)-5-(trifluoromethyl)phenyl)piperidine-1-carboxamide]",IC50,[2],270 nM
"CNC(=O)c1ccc(Oc2cc(NC(=O)N3CCC(C)(O)CC3)cc(C(F)(F)F)c2)cc1 [Compound 25a, 4-Hydroxy-4-methyl-N-(3-(4-(methylcarbamoyl)phenoxy)-5-(trifluoromethyl)phenyl)piperidine-1-carboxamide]",IC50,[3],> 1000 nM
"CC1(O)CCN(C(=O)Nc2cc(Oc3ccc(S(C)(=O)=O)cc3)cc(C(F)(F)F)c2)CC1 [Compound 25b, 4-Hydroxy-4-methyl-N-(3-(4-(methylsulfonyl)phenoxy)-5-(trifluoromethyl)phenyl)piperidine-1-carboxamide]",IC50,[3],> 1000 nM
"CCC1(O)CCN(C(=O)Nc2cc(Oc3ccc(C(=O)NC)cc3)cc(C(F)(F)F)c2)CC1 [Compound 25c, 4-Ethyl-4-hydroxy-N-(3-(4-(methylcarbamoyl)phenoxy)-5-(trifluoromethyl)phenyl)piperidine-1-carboxamide]",IC50,[3],> 1000 nM
"CCC1(O)CCN(C(=O)Nc2cc(Oc3ccc(S(C)(=O)=O)cc3)cc(C(F)(F)F)c2)CC1 [Compound 25d, 4-Ethyl-4-hydroxy-N-(3-(4-(methylsulfonyl)phenoxy)-5-(trifluoromethyl)phenyl)piperidine-1-carboxamide]",IC50,[3],> 1000 nM
"CNC(=O)c1ccc(Oc2cc(NC(=O)N3CCC(O)(C(C)C)CC3)cc(C(F)(F)F)c2)cc1 [Compound 25e, 4-Hydroxy-4-isopropyl-N-(3-(4-(methylcarbamoyl)phenoxy)-5-(trifluoromethyl)phenyl)piperidine-1-carboxamide]",IC50,[3],> 1000 nM
"CC(C)C1(O)CCN(C(=O)Nc2cc(Oc3ccc(S(C)(=O)=O)cc3)cc(C(F)(F)F)c2)CC1 [Compound 25f, 4-Hydroxy-4-isopropyl-N-(3-(4-(methylsulfonyl)phenoxy)-5-(trifluoromethyl)phenyl)piperidine-1-carboxamide]",IC50,[3],> 1000 nM
"CNC(=O)c1ccc(Oc2cc(NC(=O)N3CCC(O)(CC(C)C)CC3)cc(C(F)(F)F)c2)cc1 [Compound 25g, 4-Hydroxy-4-isobutyl-N-(3-(4-(methylcarbamoyl)phenoxy)-5-(trifluoromethyl)phenyl)piperidine-1-carboxamide]",IC50,[3],359 nM
"CC(C)CC1(O)CCN(C(=O)Nc2cc(Oc3ccc(S(C)(=O)=O)cc3)cc(C(F)(F)F)c2)CC1 [Compound 25h, 4-Hydroxy-4-isobutyl-N-(3-(4-(methylsulfonyl)phenoxy)-5-(trifluoromethyl)phenyl)piperidine-1-carboxamide]",IC50,[3],296 nM
"CNC(=O)c1ccc(Oc2cc(NC(=O)N3CC(O)(CC(C)C)C3)cc(C(F)(F)F)c2)cc1 [Compound 25i, 3-Hydroxy-3-isobutyl-N-(3-(4-(methylcarbamoyl)phenoxy)-5-(trifluoromethyl)phenyl)azetidine-1-carboxamide]",IC50,[3],> 1000 nM
same,IC50,[2],> 1000 nM
CCC(CC)CC1(O)CCN(C(=O)Nc2cc(Oc3ccc(C(=O)NC)cc3)c3c(c2)oc2ccc(F)cc23)CC1 [TZ51-011],IC50,"Table 5, read-out: IC50 S1PR2",472 ± 244 nM
CCC(CC)CC1(O)CCN(C(=O)Nc2cc(Oc3ccc(C(=O)NC)cc3)cc(C(F)(F)F)c2)CC1 [TZ51-018],IC50,"Table 5, read-out: IC50 S1PR2",> 1000 nM
CNC(=O)c1ccc(Oc2cc(NC(=O)N3CCOCC3)cc(C(F)(F)F)c2)cc1 [TZ51-019],IC50,"Table 5, read-out: IC50 S1PR2",> 1000 nM
CNC(=O)c1ccc(Oc2cc(NC(=O)N3CCC(=O)CC3)cc(C(F)(F)F)c2)cc1 [TZ51-020],IC50,"IC50 S1PR2, Table 5",> 1000 nM
CNC(=O)c1ccc(Oc2cc(NC(=O)N3CCC4(CC3)OCCO4)cc(C(F)(F)F)c2)cc1 [TZ51-022],IC50,"IC50 S1PR2, Table 5",> 1000 nM
CNC(=O)c1ccc(Oc2cc(NC(=O)N3CCC(O)CC3)cc(C(F)(F)F)c2)cc1 [TZ51-041],IC50,"Table 5, read-out: IC50 S1PR2",> 1000 nM
CNC(=O)c1ccc(Oc2cc(NC(=O)N3CCC(O)(C(C)C)CC3)cc(C(F)(F)F)c2)cc1 [TZ51-044],IC50,"Table 5, read-out: IC50 S1PR2",> 1000 nM
CC(C)C1(O)CCN(C(=O)Nc2cc(Oc3ccc(S(C)(=O)=O)cc3)cc(C(F)(F)F)c2)CC1 [TZ51-045],IC50,"Table 5, read-out: IC50 S1PR2",> 1000 nM
CCC1(O)CCN(C(=O)Nc2cc(Oc3ccc(C(=O)NC)cc3)cc(C(F)(F)F)c2)CC1 [TZ51-046],IC50,"Table 5, read-out: IC50 S1PR2",> 1000 nM
CCC1(O)CCN(C(=O)Nc2cc(Oc3ccc(S(C)(=O)=O)cc3)cc(C(F)(F)F)c2)CC1 [TZ51-047],IC50,"Table 5, read-out: IC50 S1PR2",> 1000 nM
CNC(=O)c1ccc(Oc2cc(NC(=O)N3CCC(C)(O)CC3)cc(C(F)(F)F)c2)cc1 [TZ51-057],IC50,"Table 5, read-out: IC50 S1PR2",> 1000 nM
CC1(O)CCN(C(=O)Nc2cc(Oc3ccc(S(C)(=O)=O)cc3)cc(C(F)(F)F)c2)CC1 [TZ51-058],IC50,"Table 5, read-out: IC50 S1PR2",> 1000 nM
COc1ccc(Oc2cc(NC(=O)N3CCC(O)(C(C)C)CC3)cc(C(F)(F)F)c2)cc1 [TZ51-059],IC50,"Table 5, read-out: IC50 S1PR2",> 1000 nM
CC(C)C1(O)CCN(C(=O)Nc2cc(Oc3ccncc3)cc(C(F)(F)F)c2)CC1 [TZ51-061],IC50,"Table 5, read-out: IC50 S1PR2",> 1000 nM
CC(C)CC1(O)CCN(C(=O)Nc2cc(Oc3ccc(C(=O)O)cc3)cc(C(F)(F)F)c2)CC1 [TZ51-073],IC50,"Table 5, read-out: IC50 S1PR2",> 1000 nM
CC(C)CC1(O)CCN(C(=O)Nc2cc(Oc3ccc(C(=O)N(C)C)cc3)cc(C(F)(F)F)c2)CC1 [TZ51-095],IC50,"Table 5, read-out: IC50 S1PR2",> 1000 nM
CC(C)CC1(O)CCN(C(=O)Nc2cc(Oc3ccc(C(N)=O)cc3)cc(C(F)(F)F)c2)CC1 [TZ51-096],IC50,"Table 5, read-out: IC50 S1PR2",> 1000 nM
CNC(=O)c1ccc(Oc2cc(NC(=O)N3CC(O)(CC(C)C)C3)cc(C(F)(F)F)c2)cc1 [TZ51-097],IC50,"Table 5, read-out: IC50 S1PR2",> 1000 nM
CNC(=O)c1ccc(Oc2cc(NC(=O)N3CCC(O)(CC(C)C)CC3)cc(C(F)(F)F)c2)cc1 [TZ51-108],IC50,"Table 5, read-out: IC50 S1PR2",> 1000 nM
CNC(=O)c1ccc(Oc2cc(NC(=O)N3CC(N4CCN(C)CC4)C3)cc(C(F)(F)F)c2)cc1 [TZ51-112],IC50,"Table 5, read-out: IC50 S1PR2",> 1000 nM
CNC(=O)c1ccc(Sc2cc(NC(=O)N3CCC(O)(CC(C)C)CC3)cc(C(F)(F)F)c2)cc1 [TZ51-121],IC50,"Table 5, read-out: IC50 S1PR2",421 ± 90 nM
CCC(CC)CC1(O)CCN(C(=O)Nc2cc(OCCCF)cc(Oc3ccc(C(=O)NC)cc3)c2)CC1 [TZ51-133],IC50,"Table 5, read-out: IC50 S1PR2",> 1000 nM
CCC(CC)CC1(O)CCN(C(=O)Nc2cc(OCCCF)cc(Oc3ccc(F)cc3)c2)CC1 [TZ51-139],IC50,"Table 5, read-out: IC50 S1PR2",> 1000 nM
CCC(CC)CC1(O)CCN(C(=O)Nc2cc(OCCF)cc(Oc3ccc(F)cc3)c2)CC1 [TZ51-149],IC50,"Table 5, read-out: IC50 S1PR2",> 1000 nM
CCC(CC)CC1(O)CCN(C(=O)Nc2nc(Oc3ccc(F)cc3)nc(Oc3ccc(F)cc3)n2)CC1 [TZ51-150],IC50,"Table 5, read-out: IC50 S1PR2",> 1000 nM
CCC(CC)CC1(O)CCN(C(=O)Nc2nc(Oc3ccc(F)cc3)cc(Oc3ccc(F)cc3)n2)CC1 [TZ57-007],IC50,"Table 5, read-out: IC50 S1PR2",> 1000 nM
CCC(CC)CC1(O)CCN(C(=O)Nc2cc(Oc3ccc(F)cc3)cc(N3CCN(C)CC3)c2)CC1 [TZ57-013],IC50,"Table 5, read-out: IC50 S1PR2",> 1000 nM
CCC(CC)CC1(O)CCN(C(=O)Nc2cc(Oc3ccc(F)cc3)cc(-n3cccn3)c2)CC1 [TZ57-016],IC50,"Table 5, read-out: IC50 S1PR2",> 1000 nM
CC(C)CC1(O)CCN(C(=O)Nc2cc(Oc3ccc(S(C)(=O)=O)cc3)cc(Oc3ccc(F)nc3)c2)CC1 [TZ57-040],IC50,"Table 5, read-out: IC50 S1PR2",211 ± 32 nM
CCC(CC)CC1(O)CCN(C(=O)Nc2cc(Oc3ccc(S(C)(=O)=O)cc3)cc(Oc3ccc(F)nc3)c2)CC1 [TZ57-041],IC50,"Table 5, read-out: IC50 S1PR2",198 ± 45 nM
